Legend:
MST1 = target: T1, MST1 (Homo sapiens, UniProt Q13043); test: KINOMEscan; assay type: binding; conditions: read-out: % Ctrl
T1 construct: purchased DiscoveRx KINOMEscan

GRK3 = target: T2, GRK3 (Homo sapiens, UniProt P35626); test: KINOMEscan; assay type: binding; conditions: read-out: % Ctrl
T2 construct: purchased DiscoveRx KINOMEscan

HCK = target: T3, HCK (Homo sapiens, UniProt P08631); test: KINOMEscan; assay type: binding; conditions: read-out: % Ctrl
T3 construct: purchased DiscoveRx KINOMEscan

TRKA = target: T4, TRKA (Homo sapiens, UniProt P04629); test: KINOMEscan; assay type: binding; conditions: read-out: % Ctrl
T4 construct: purchased DiscoveRx KINOMEscan

CAMK2B = target: T5, CAMK2B (Homo sapiens, UniProt Q13554); test: KINOMEscan; assay type: binding; conditions: read-out: % Ctrl
T5 construct: purchased DiscoveRx KINOMEscan

YANK1 = target: T6, YANK1 (Homo sapiens, UniProt Q8WU08); test: KINOMEscan; assay type: binding; conditions: read-out: % Ctrl
T6 construct: purchased DiscoveRx KINOMEscan

TIE2 = target: T7, TIE2 (Homo sapiens, UniProt Q02763); test: KINOMEscan; assay type: binding; conditions: read-out: % Ctrl
T7 construct: purchased DiscoveRx KINOMEscan

CSNK1A1 = target: T8, CSNK1A1 (Homo sapiens, UniProt P48729); test: KINOMEscan; assay type: binding; conditions: read-out: % Ctrl
T8 construct: purchased DiscoveRx KINOMEscan

MEK5 = target: T9, MEK5 (Homo sapiens, UniProt Q13163); test: KINOMEscan; assay type: binding; conditions: read-out: % Ctrl
T9 construct: purchased DiscoveRx KINOMEscan

TLK2 = target: T10, TLK2 (Homo sapiens, UniProt Q86UE8); test: KINOMEscan; assay type: binding; conditions: read-out: % Ctrl
T10 construct: purchased DiscoveRx KINOMEscan

PIK3C2B = target: T11, PIK3C2B (Homo sapiens, UniProt O00750); test: KINOMEscan; assay type: binding; conditions: read-out: % Ctrl
T11 construct: purchased DiscoveRx KINOMEscan

CSNK1G3 = target: T12, CSNK1G3 (Homo sapiens, UniProt Q9Y6M4); test: KINOMEscan; assay type: binding; conditions: read-out: % Ctrl
T12 construct: purchased DiscoveRx KINOMEscan

S6K1 = target: T13, S6K1 (Homo sapiens, UniProt P23443); test: KINOMEscan; assay type: binding; conditions: read-out: % Ctrl
T13 construct: purchased DiscoveRx KINOMEscan

PIK3CG = target: T14, PIK3CG (Homo sapiens, UniProt P48736); test: KINOMEscan; assay type: binding; conditions: read-out: % Ctrl
T14 construct: purchased DiscoveRx KINOMEscan

CSNK1D = target: T15, CSNK1D (Homo sapiens, UniProt P48730); test: KINOMEscan; assay type: binding; conditions: read-out: % Ctrl
T15 construct: purchased DiscoveRx KINOMEscan

DYRK2 = target: T16, DYRK2 (Homo sapiens, UniProt Q92630); test: KINOMEscan; assay type: binding; conditions: read-out: % Ctrl
T16 construct: purchased DiscoveRx KINOMEscan

STK33 = target: T17, STK33 (Homo sapiens, UniProt Q9BYT3); test: KINOMEscan; assay type: binding; conditions: read-out: % Ctrl
T17 construct: purchased DiscoveRx KINOMEscan

BRAF = target: T18, BRAF (Homo sapiens, UniProt P15056); test: KINOMEscan; assay type: binding; conditions: read-out: % Ctrl
T18 construct: purchased DiscoveRx KINOMEscan

IRAK1 = target: T19, IRAK1 (Homo sapiens, UniProt P51617); test: KINOMEscan; assay type: binding; conditions: read-out: % Ctrl
T19 construct: purchased DiscoveRx KINOMEscan

ACVRL1 = target: T20, ACVRL1 (Homo sapiens, UniProt P37023); test: KINOMEscan; assay type: binding; conditions: read-out: % Ctrl
T20 construct: purchased DiscoveRx KINOMEscan

ERN1 = target: T21, ERN1 (Homo sapiens, UniProt O75460); test: KINOMEscan; assay type: binding; conditions: read-out: % Ctrl
T21 construct: purchased DiscoveRx KINOMEscan

LRRK2(G2019S) = target: T22, LRRK2(G2019S) (Homo sapiens, UniProt Q5S007, G2019S); test: KINOMEscan; assay type: binding; conditions: read-out: % Ctrl
T22 construct: purchased DiscoveRx KINOMEscan

RPS6KA4(KD1-N-t.) = target: T23, RPS6KA4(KD1-N-t.) (Homo sapiens, UniProt O75676); test: KINOMEscan; assay type: binding; conditions: read-out: % Ctrl
T23 construct: RPS6KA4(KD1-N-t.); purchased DiscoveRx KINOMEscan

PIK3CA(C420R) = target: T24, PIK3CA(C420R) (Homo sapiens, UniProt P42336, C420R); test: KINOMEscan; assay type: binding; conditions: read-out: % Ctrl
T24 construct: purchased DiscoveRx KINOMEscan

IKK-alpha = target: T25, IKK-alpha (Homo sapiens, UniProt O15111); test: KINOMEscan; assay type: binding; conditions: read-out: % Ctrl
T25 construct: purchased DiscoveRx KINOMEscan

RSK4(KD1-N-t.) = target: T26, RSK4(KD1-N-t.) (Homo sapiens, UniProt Q9UK32); test: KINOMEscan; assay type: binding; conditions: read-out: % Ctrl
T26 construct: RSK4(KD1-N-t.); purchased DiscoveRx KINOMEscan

TYK2 = target: T27, TYK2 (Homo sapiens, UniProt P29597); test: TYK2 kinase assay (ProQinase); assay type: biochemical; conditions: kinase orthogonal assay
T27 construct: purchased ProQinase

PIP5K1A = target: T28, PIP5K1A (Homo sapiens, UniProt Q99755); test: KINOMEscan; assay type: binding; conditions: read-out: % Ctrl
T28 construct: purchased DiscoveRx KINOMEscan

MYO3A = target: T29, MYO3A (Homo sapiens, UniProt Q8NEV4); test: KINOMEscan; assay type: binding; conditions: read-out: % Ctrl
T29 construct: purchased DiscoveRx KINOMEscan

DMPK = target: T30, DMPK (Homo sapiens, UniProt Q09013); test: KINOMEscan; assay type: binding; conditions: read-out: % Ctrl
T30 construct: purchased DiscoveRx KINOMEscan

MAP3K4 = target: T31, MAP3K4 (Homo sapiens, UniProt Q9Y6R4); test: KINOMEscan; assay type: binding; conditions: read-out: % Ctrl
T31 construct: purchased DiscoveRx KINOMEscan

TRPM6 = target: T32, TRPM6 (Homo sapiens, UniProt Q9BX84); test: KINOMEscan; assay type: binding; conditions: read-out: % Ctrl
T32 construct: purchased DiscoveRx KINOMEscan

ROCK1 = target: T33, ROCK1 (Homo sapiens, UniProt Q13464); test: KINOMEscan; assay type: binding; conditions: read-out: % Ctrl
T33 construct: purchased DiscoveRx KINOMEscan

ABL1(Q252H)-nonP = target: T34, ABL1(Q252H)-nonP (Homo sapiens, UniProt P00519, Q252H); test: KINOMEscan; assay type: binding; conditions: read-out: % Ctrl
T34 construct: purchased DiscoveRx KINOMEscan

CSNK2A1 = target: T35, CSNK2A1 (Homo sapiens, UniProt P68400); test: KINOMEscan; assay type: binding; conditions: read-out: % Ctrl
T35 construct: purchased DiscoveRx KINOMEscan

MUSK = target: T36, MUSK (Homo sapiens, UniProt O15146); test: KINOMEscan; assay type: binding; conditions: read-out: % Ctrl
T36 construct: purchased DiscoveRx KINOMEscan

ASK2 = target: T37, ASK2 (Homo sapiens, UniProt O95382); test: KINOMEscan; assay type: binding; conditions: read-out: % Ctrl
T37 construct: purchased DiscoveRx KINOMEscan

ABL1(F317I)-nonP = target: T38, ABL1(F317I)-nonP (Homo sapiens, UniProt P00519, F317I); test: KINOMEscan; assay type: binding; conditions: read-out: % Ctrl
T38 construct: purchased DiscoveRx KINOMEscan

BRK = target: T39, BRK (Homo sapiens, UniProt Q13882); test: KINOMEscan; assay type: binding; conditions: read-out: % Ctrl
T39 construct: purchased DiscoveRx KINOMEscan

MARK2 = target: T40, MARK2 (Homo sapiens, UniProt Q7KZI7); test: KINOMEscan; assay type: binding; conditions: read-out: % Ctrl
T40 construct: purchased DiscoveRx KINOMEscan

MAPKAPK5 = target: T41, MAPKAPK5 (Homo sapiens, UniProt Q8IW41); test: KINOMEscan; assay type: binding; conditions: read-out: % Ctrl
T41 construct: purchased DiscoveRx KINOMEscan

AURKA = target: T42, AURKA (Homo sapiens, UniProt O14965); test: KINOMEscan; assay type: binding; conditions: read-out: % Ctrl
T42 construct: purchased DiscoveRx KINOMEscan

EPHA7 = target: T43, EPHA7 (Homo sapiens, UniProt Q15375); test: KINOMEscan; assay type: binding; conditions: read-out: % Ctrl
T43 construct: purchased DiscoveRx KINOMEscan

T21 sequence (O75460 19-977): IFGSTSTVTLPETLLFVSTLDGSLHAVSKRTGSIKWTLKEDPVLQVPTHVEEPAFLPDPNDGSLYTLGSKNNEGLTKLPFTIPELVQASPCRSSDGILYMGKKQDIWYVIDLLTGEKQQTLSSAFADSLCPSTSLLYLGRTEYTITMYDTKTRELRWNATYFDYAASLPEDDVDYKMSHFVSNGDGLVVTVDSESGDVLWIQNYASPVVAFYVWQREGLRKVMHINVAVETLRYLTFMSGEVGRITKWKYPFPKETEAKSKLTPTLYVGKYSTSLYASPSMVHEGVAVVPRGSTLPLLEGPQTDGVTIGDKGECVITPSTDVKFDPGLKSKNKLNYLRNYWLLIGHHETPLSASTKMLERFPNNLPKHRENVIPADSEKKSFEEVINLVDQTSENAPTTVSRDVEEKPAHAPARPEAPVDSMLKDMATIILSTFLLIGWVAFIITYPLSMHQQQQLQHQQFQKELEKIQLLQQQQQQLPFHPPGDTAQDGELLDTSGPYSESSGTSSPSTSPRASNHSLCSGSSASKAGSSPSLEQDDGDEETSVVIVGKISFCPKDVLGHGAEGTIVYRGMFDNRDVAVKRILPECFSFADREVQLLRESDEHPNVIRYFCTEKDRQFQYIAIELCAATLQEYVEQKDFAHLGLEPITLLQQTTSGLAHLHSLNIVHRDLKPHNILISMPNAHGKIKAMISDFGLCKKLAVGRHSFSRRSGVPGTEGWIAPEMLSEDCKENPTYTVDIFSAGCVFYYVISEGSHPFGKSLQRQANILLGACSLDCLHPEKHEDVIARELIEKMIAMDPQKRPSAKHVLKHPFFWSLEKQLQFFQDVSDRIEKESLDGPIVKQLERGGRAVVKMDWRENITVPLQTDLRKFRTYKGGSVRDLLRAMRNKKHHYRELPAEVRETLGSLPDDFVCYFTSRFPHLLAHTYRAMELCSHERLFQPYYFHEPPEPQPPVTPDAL
T12 sequence (Q9Y6M4 whole entry): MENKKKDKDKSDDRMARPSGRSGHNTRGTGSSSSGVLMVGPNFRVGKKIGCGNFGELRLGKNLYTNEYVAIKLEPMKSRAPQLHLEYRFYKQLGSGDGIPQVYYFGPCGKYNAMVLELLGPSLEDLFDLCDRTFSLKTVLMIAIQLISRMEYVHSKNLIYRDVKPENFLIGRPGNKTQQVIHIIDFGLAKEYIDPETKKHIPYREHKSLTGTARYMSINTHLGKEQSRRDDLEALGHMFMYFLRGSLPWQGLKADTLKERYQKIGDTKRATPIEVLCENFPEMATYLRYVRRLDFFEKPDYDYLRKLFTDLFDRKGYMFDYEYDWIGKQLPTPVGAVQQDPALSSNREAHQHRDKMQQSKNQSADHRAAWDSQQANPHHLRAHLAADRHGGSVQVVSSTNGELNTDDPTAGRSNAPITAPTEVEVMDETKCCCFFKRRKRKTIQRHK
T7 sequence (Q02763 23-1124): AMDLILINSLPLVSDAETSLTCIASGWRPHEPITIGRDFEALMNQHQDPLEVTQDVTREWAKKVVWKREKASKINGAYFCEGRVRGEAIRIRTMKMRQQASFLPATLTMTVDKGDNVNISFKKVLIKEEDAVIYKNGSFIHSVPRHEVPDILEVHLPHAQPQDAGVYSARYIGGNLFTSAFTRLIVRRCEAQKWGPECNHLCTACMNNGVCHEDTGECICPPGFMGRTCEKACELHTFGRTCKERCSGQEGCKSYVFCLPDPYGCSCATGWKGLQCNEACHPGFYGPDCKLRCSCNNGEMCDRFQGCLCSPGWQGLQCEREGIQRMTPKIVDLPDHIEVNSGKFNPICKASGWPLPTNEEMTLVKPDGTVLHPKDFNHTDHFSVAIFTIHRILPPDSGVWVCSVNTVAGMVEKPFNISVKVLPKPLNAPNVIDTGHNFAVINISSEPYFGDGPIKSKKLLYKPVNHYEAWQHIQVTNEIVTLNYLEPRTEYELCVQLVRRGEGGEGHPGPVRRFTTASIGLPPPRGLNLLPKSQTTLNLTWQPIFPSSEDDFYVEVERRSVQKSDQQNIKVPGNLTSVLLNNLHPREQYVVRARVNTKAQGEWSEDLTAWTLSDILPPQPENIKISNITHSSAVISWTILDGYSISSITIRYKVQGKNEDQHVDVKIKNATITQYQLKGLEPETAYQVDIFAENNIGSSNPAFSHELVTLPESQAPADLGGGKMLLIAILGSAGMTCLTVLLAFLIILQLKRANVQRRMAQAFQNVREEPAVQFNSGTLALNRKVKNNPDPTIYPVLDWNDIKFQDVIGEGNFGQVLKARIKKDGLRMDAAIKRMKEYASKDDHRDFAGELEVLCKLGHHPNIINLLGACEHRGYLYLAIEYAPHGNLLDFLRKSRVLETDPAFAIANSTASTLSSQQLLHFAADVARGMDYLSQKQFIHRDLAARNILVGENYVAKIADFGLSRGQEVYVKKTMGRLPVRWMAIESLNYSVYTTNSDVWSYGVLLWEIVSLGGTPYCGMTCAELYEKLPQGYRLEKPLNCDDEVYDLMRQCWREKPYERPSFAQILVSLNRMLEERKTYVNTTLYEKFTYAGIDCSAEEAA
T39 sequence (Q13882 whole entry): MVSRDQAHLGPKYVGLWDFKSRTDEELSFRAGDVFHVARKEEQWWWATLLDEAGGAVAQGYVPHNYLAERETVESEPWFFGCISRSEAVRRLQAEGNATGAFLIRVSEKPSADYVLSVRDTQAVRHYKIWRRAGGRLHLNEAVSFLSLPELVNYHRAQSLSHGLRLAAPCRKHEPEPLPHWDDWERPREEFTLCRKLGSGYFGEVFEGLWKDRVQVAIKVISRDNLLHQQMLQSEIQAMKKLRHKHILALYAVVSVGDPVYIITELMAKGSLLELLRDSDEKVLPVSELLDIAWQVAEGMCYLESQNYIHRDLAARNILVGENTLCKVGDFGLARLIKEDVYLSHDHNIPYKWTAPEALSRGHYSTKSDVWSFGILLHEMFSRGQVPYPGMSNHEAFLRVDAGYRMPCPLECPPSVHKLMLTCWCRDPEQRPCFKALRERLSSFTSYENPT
T42 sequence (O14965 whole entry): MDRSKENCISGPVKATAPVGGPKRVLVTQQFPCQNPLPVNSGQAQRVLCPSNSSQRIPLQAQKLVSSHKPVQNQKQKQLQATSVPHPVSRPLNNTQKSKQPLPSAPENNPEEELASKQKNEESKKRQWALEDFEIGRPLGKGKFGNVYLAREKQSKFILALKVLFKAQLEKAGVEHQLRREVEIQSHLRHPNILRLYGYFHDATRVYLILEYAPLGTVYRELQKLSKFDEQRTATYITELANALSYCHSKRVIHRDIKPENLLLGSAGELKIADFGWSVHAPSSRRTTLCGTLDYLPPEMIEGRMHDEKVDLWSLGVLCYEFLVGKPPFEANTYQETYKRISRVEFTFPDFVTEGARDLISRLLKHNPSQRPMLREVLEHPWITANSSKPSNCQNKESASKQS
T28 sequence (Q99755 whole entry): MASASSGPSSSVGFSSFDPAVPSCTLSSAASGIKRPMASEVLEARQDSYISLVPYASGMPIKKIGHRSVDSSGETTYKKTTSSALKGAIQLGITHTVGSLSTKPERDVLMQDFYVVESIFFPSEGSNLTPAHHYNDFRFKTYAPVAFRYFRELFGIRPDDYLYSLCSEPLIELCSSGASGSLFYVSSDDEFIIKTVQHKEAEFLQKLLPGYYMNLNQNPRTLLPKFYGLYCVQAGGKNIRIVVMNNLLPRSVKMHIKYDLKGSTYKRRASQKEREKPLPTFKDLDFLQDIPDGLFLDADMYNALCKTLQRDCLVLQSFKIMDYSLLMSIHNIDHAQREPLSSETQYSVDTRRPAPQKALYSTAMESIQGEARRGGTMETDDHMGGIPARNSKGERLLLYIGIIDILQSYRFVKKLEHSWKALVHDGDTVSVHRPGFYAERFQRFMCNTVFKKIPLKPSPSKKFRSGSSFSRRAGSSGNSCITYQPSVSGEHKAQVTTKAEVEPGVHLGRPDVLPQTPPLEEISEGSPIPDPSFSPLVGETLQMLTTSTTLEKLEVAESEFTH
T2 sequence (P35626 whole entry): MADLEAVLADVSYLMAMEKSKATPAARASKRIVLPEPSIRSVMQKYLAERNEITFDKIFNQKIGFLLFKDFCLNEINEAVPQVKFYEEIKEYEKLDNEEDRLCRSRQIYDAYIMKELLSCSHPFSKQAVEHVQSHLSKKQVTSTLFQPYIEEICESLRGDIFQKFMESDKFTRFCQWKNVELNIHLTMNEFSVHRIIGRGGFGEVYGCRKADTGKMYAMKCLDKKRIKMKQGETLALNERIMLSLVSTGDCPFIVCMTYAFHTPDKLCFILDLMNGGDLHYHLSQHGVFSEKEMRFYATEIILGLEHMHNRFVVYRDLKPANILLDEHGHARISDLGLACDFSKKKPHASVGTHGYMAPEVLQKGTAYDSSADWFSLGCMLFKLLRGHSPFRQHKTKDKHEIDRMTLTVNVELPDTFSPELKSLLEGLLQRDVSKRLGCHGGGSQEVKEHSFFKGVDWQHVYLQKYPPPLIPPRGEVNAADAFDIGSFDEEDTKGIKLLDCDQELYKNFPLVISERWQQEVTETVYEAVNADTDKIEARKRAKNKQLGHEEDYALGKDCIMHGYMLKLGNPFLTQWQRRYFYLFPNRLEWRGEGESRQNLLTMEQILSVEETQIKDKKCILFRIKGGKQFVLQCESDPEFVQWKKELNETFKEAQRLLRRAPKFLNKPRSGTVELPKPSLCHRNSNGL
T23 sequence (O75676 1-371 limits assumed): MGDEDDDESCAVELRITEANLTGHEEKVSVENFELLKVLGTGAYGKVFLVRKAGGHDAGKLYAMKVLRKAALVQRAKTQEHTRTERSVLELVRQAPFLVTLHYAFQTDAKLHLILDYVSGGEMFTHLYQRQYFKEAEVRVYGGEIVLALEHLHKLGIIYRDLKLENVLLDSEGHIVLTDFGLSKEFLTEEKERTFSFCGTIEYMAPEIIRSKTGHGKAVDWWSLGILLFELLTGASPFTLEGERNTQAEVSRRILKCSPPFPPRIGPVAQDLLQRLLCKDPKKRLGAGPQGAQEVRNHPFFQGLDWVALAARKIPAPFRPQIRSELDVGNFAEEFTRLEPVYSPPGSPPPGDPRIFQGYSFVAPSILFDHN

## CN1CCC(CNc2ccc3ncc(C(=O)Nc4cccc(OC(F)(F)F)c4)n3n2)CC1 [Cpd 2]
MST1
  remaining binding at 1 µM: 100%
GRK3
  remaining binding at 1 µM: 76%
HCK
  remaining binding at 1 µM: 96%
TRKA
  remaining binding at 1 µM: 82%
CAMK2B
  remaining binding at 1 µM: 92%
YANK1
  remaining binding at 1 µM: 100%
TIE2
  remaining binding at 1 µM: 100%
CSNK1A1
  remaining binding at 1 µM: 100%
MEK5
  remaining binding at 1 µM: 73%
TLK2
  remaining binding at 1 µM: 100%
PIK3C2B
  remaining binding at 1 µM: 48%
CSNK1G3
  remaining binding at 1 µM: 100%
S6K1
  remaining binding at 1 µM: 93%
PIK3CG
  remaining binding at 1 µM: 100%
CSNK1D
  remaining binding at 1 µM: 100%
DYRK2
  remaining binding at 1 µM: 86%
STK33
  remaining binding at 1 µM: 100%
BRAF
  remaining binding at 1 µM: 100%
IRAK1
  remaining binding at 1 µM: 100%
ACVRL1
  remaining binding at 1 µM: 100%
ERN1
  remaining binding at 1 µM: 79%
LRRK2(G2019S)
  remaining binding at 1 µM: 93%
RPS6KA4(KD1-N-t.)
  remaining binding at 1 µM: 92%
PIK3CA(C420R)
  remaining binding at 1 µM: 100%
IKK-alpha
  remaining binding at 1 µM: 97%
RSK4(KD1-N-t.)
  remaining binding at 1 µM: 92%
TYK2
  IC50: 65 µM
PIP5K1A
  remaining binding at 1 µM: 100%
MYO3A
  remaining binding at 1 µM: 91%
DMPK
  remaining binding at 1 µM: 88%
MAP3K4
  remaining binding at 1 µM: 86%
TRPM6
  remaining binding at 1 µM: 100%
ROCK1
  remaining binding at 1 µM: 50%
ABL1(Q252H)-nonP
  remaining binding at 1 µM: 94%
CSNK2A1
  remaining binding at 1 µM: 98%
MUSK
  remaining binding at 1 µM: 99%
ASK2
  remaining binding at 1 µM: 99%
ABL1(F317I)-nonP
  remaining binding at 1 µM: 61%
BRK
  remaining binding at 1 µM: 99%
MARK2
  remaining binding at 1 µM: 96%
MAPKAPK5
  remaining binding at 1 µM: 100%
AURKA
  remaining binding at 1 µM: 96%
EPHA7
  remaining binding at 1 µM: 100%
